The results in this text go back to the OligoGym collection.

Oligonucleotides are written 5' to 3', each unit as a sugar letter and its base; * is a phosphorothioate linkage, no mark a phosphodiester; rarer units and linkages stand in square brackets, end groups in braces. Plain capitals give the bases only. d = 2'-deoxy (DNA); r = 2'-OH (RNA)
Further: test concentration or dose not given here.

The first data set addresses MRFAP1. Description: reporter assay of Huesken 2005. Conditions: siRNA. Background: Reporter assays use an easily measured gene product as a stand-in for the process of interest.
As for “sense rGrGrUrGrCrArGrCrUrCrGrUrGrCrGrGrCrGrGdTdT / antisense rCrCrGrCrCrGrCrArCrGrArGrCrUrGrCrArCrCdAdG”, the normalised inhibition (eCFP-eYFP dual reporter) worked out at 88.4%.

Consider “sense rGrUrArGrUrCrArArGrCrUrArUrArArArUrGrUdTdT / antisense rArCrArUrUrUrArUrArGrCrUrUrGrArCrUrArCdAdT”, for which the normalised inhibition (eCFP-eYFP dual reporter) was determined as 88.3%.

“sense rGrUrCrCrCrUrGrUrGrArCrArCrUrGrArGrArCdTdT / antisense rGrUrCrUrCrArGrUrGrUrCrArCrArGrGrGrArCdCdC” returned a normalised inhibition (eCFP-eYFP dual reporter) of 43%.

“sense rGrUrGrArGrCrCrGrUrCrCrGrCrGrGrUrUrUrCdTdT / antisense rGrArArArCrCrGrCrGrGrArCrGrGrCrUrCrArCdGdA” had a normalised inhibition (eCFP-eYFP dual reporter) of 72.2%.

For “sense rGrUrGrGrGrArGrArUrGrGrArCrArArUrArUrGdTdT / antisense rCrArUrArUrUrGrUrCrCrArUrCrUrCrCrCrArCdAdG”, the normalised inhibition (eCFP-eYFP dual reporter) amounted to 79.7%.

The substance “sense rGrUrGrUrGrArGrArCrCrArArArGrGrArGrGrAdTdT / antisense rUrCrCrUrCrCrUrUrUrGrGrUrCrUrCrArCrArCdAdG” yielded a normalised inhibition (eCFP-eYFP dual reporter) of 98%.

“sense rGrUrGrUrGrUrUrCrCrUrGrArArUrUrUrGrArGdTdT / antisense rCrUrCrArArArUrUrCrArGrGrArArCrArCrArCdCdA”: the normalised inhibition (eCFP-eYFP dual reporter) amounted to 32.7%.

Substance “sense rGrUrUrCrCrUrGrArArUrUrUrGrArGrGrUrGrCdTdT / antisense rGrCrArCrCrUrCrArArArUrUrCrArGrGrArArCdAdC” had a normalised inhibition (eCFP-eYFP dual reporter) of 23.1%.

As for “sense rUrArCrArCrGrGrCrUrArGrGrArCrUrGrArUrGdTdT / antisense rCrArUrCrArGrUrCrCrUrArGrCrCrGrUrGrUrAdAdG”, the normalised inhibition (eCFP-eYFP dual reporter) is 61.8%.

Turning to “sense rUrArCrGrUrUrUrCrUrGrCrUrArUrGrGrUrCrUdTdT / antisense rArGrArCrCrArUrArGrCrArGrArArArCrGrUrAdGdT”, the normalised inhibition (eCFP-eYFP dual reporter) came to 62.7%.

As for “sense rUrArGrArArGrArGrGrArCrUrCrCrArUrGrCrAdTdT / antisense rUrGrCrArUrGrGrArGrUrCrCrUrCrUrUrCrUrAdGdA”, the normalised inhibition (eCFP-eYFP dual reporter) turned out to be 68.6%.

As to “sense rUrArGrGrArCrUrGrArUrGrArCrCrUrGrGrGrAdTdT / antisense rUrCrCrCrArGrGrUrCrArUrCrArGrUrCrCrUrAdGdC”, the normalised inhibition (eCFP-eYFP dual reporter) is 70.4%.

The substance “sense rUrArUrCrCrCrCrArUrArUrArUrUrUrGrArGrGdTdT / antisense rCrCrUrCrArArArUrArUrArUrGrGrGrGrArUrAdCdC” had a normalised inhibition (eCFP-eYFP dual reporter) of 48.6%.

Turning to “sense rUrCrArCrCrGrCrCrUrCrUrGrArArArGrUrUrCdTdT / antisense rGrArArCrUrUrUrCrArGrArGrGrCrGrGrUrGrAdGdC”, the normalised inhibition (eCFP-eYFP dual reporter) amounted to 45.5%.

The substance “sense rUrCrArUrUrCrCrUrGrGrCrUrUrUrGrGrUrGrUdTdT / antisense rArCrArCrCrArArArGrCrCrArGrGrArArUrGrAdAdC” came in with a normalised inhibition (eCFP-eYFP dual reporter) of 52.6%.

For “sense rUrCrCrArGrArUrCrArArGrArCrGrCrArGrGrUdTdT / antisense rArCrCrUrGrCrGrUrCrUrUrGrArUrCrUrGrGrAdTdC”, the normalised inhibition (eCFP-eYFP dual reporter) came to 54.6%.

In turn, “sense rUrCrCrCrUrGrArArCrUrUrUrGrGrGrUrCrCrCdTdT / antisense rGrGrGrArCrCrCrArArArGrUrUrCrArGrGrGrAdGdC” returned a normalised inhibition (eCFP-eYFP dual reporter) of 53.3%.

In turn, “sense rUrCrCrUrGrGrCrUrUrUrGrGrUrGrUrGrUrUrCdTdT / antisense rGrArArCrArCrArCrCrArArArGrCrCrArGrGrAdAdT” had a normalised inhibition (eCFP-eYFP dual reporter) of 66.9%.

On to “sense rUrCrGrCrUrGrArCrGrCrGrCrGrArGrCrGrCrGdTdT / antisense rCrGrCrGrCrUrCrGrCrGrCrGrUrCrArGrCrGrAdCdG”, for which the normalised inhibition (eCFP-eYFP dual reporter) was 14%.

Substance “sense rUrCrGrGrArGrGrArUrUrGrUrArUrUrGrUrUrUdTdT / antisense rArArArCrArArUrArCrArArUrCrCrUrCrCrGrAdCdC” returned a normalised inhibition (eCFP-eYFP dual reporter) of 54.7%.

Take “sense rUrCrGrUrGrCrArGrArCrArArGrCrArArArGrCdTdT / antisense rGrCrUrUrUrGrCrUrUrGrUrCrUrGrCrArCrGrAdCdA”: the normalised inhibition (eCFP-eYFP dual reporter) came to 67.6%.

With “sense rUrCrGrUrGrCrGrGrCrGrGrArUrArGrArGrArAdTdT / antisense rUrUrCrUrCrUrArUrCrCrGrCrCrGrCrArCrGrAdGdC”, the normalised inhibition (eCFP-eYFP dual reporter) was determined as 87.2%.

On to “sense rUrCrUrGrCrUrGrCrCrCrGrUrCrArUrCrCrArCdTdT / antisense rGrUrGrGrArUrGrArCrGrGrGrCrArGrCrArGrAdAdA”, for which the normalised inhibition (eCFP-eYFP dual reporter) amounted to 35.3%.

“sense rUrCrUrGrGrUrUrGrArGrUrGrArUrGrGrCrGrAdTdT / antisense rUrCrGrCrCrArUrCrArCrUrCrArArCrCrArGrAdAdT”: the normalised inhibition (eCFP-eYFP dual reporter) amounted to 75.7%.

“sense rUrCrUrUrCrGrUrGrArGrCrCrGrUrCrCrGrCrGdTdT / antisense rCrGrCrGrGrArCrGrGrCrUrCrArCrGrArArGrAdCdT”: the normalised inhibition (eCFP-eYFP dual reporter) worked out at 35.4%.

Turning to “sense rUrCrUrUrGrGrGrUrGrArCrCrUrGrArUrArGrCdTdT / antisense rGrCrUrArUrCrArGrGrUrCrArCrCrCrArArGrAdAdA”, the normalised inhibition (eCFP-eYFP dual reporter) came out at 45.6%.

“sense rUrCrUrUrUrUrCrCrCrCrUrCrUrGrUrCrUrUrCdTdT / antisense rGrArArGrArCrArGrArGrGrGrGrArArArArGrAdAdA” displayed a normalised inhibition (eCFP-eYFP dual reporter) of 35.3%.

Consider “sense rUrGrArUrGrArCrCrUrGrGrGrArGrArArGrGrGdTdT / antisense rCrCrCrUrUrCrUrCrCrCrArGrGrUrCrArUrCrAdGdT”, for which the normalised inhibition (eCFP-eYFP dual reporter) is 33.2%.

Consider “sense rUrGrCrArGrCrArArUrGrGrCrArGrArArGrArAdTdT / antisense rUrUrCrUrUrCrUrGrCrCrArUrUrGrCrUrGrCrAdTdG”, for which the normalised inhibition (eCFP-eYFP dual reporter) was 72.9%.

“sense rUrGrCrArGrCrUrCrGrUrGrCrGrGrCrGrGrArUdTdT / antisense rArUrCrCrGrCrCrGrCrArCrGrArGrCrUrGrCrAdCdC” returned a normalised inhibition (eCFP-eYFP dual reporter) of 33.7%.

For “sense rUrGrGrArCrArArUrArUrGrCrUrGrArUrCrCrAdTdT / antisense rUrGrGrArUrCrArGrCrArUrArUrUrGrUrCrCrAdTdC”, the normalised inhibition (eCFP-eYFP dual reporter) worked out at 91.5%.

Turning to “sense rUrGrGrArGrGrUrGrCrUrGrGrArGrCrCrGrGrAdTdT / antisense rUrCrCrGrGrCrUrCrCrArGrCrArCrCrUrCrCrAdCdC”, the normalised inhibition (eCFP-eYFP dual reporter) is 69.1%.

Take “sense rUrGrUrUrCrGrUrCrUrGrUrArCrArArGrUrUrGdTdT / antisense rCrArArCrUrUrGrUrArCrArGrArCrGrArArCrAdAdG”: the normalised inhibition (eCFP-eYFP dual reporter) was determined as 84.8%.

Regarding “sense rUrGrUrUrCrUrCrArCrUrGrArCrArCrUrArCrGdTdT / antisense rCrGrUrArGrUrGrUrCrArGrUrGrArGrArArCrAdGdA”, the normalised inhibition (eCFP-eYFP dual reporter) worked out at 68.9%.

As to “sense rUrGrUrUrGrGrGrArCrArGrCrCrUrArArCrUrCdTdT / antisense rGrArGrUrUrArGrGrCrUrGrUrCrCrCrArArCrAdAdA”, the normalised inhibition (eCFP-eYFP dual reporter) came to 85.6%.

In the case of “sense rUrUrArCrCrArUrGrUrUrGrArArArArCrArArAdTdT / antisense rUrUrUrGrUrUrUrUrCrArArCrArUrGrGrUrArAdGdG”, the normalised inhibition (eCFP-eYFP dual reporter) was determined as 91.3%.

In turn, “sense rUrUrCrUrCrArCrUrGrArCrArCrUrArCrGrUrUdTdT / antisense rArArCrGrUrArGrUrGrUrCrArGrUrGrArGrArAdCdA” came in with a normalised inhibition (eCFP-eYFP dual reporter) of 72.2%.

On to “sense rUrUrGrArUrUrUrGrGrArArArArUrGrCrGrCrUdTdT / antisense rArGrCrGrCrArUrUrUrUrCrCrArArArUrCrArAdAdG”, for which the normalised inhibition (eCFP-eYFP dual reporter) was found to be 68.1%.

Turning to “sense rUrUrGrGrArArArArUrGrCrGrCrUrCrArCrArUdTdT / antisense rArUrGrUrGrArGrCrGrCrArUrUrUrUrCrCrArAdAdT”, the normalised inhibition (eCFP-eYFP dual reporter) is 38.7%.

Take “sense rUrUrGrGrCrUrGrArCrArUrGrArCrArCrCrCrUdTdT / antisense rArGrGrGrUrGrUrCrArUrGrUrCrArGrCrCrArAdTdC”: the normalised inhibition (eCFP-eYFP dual reporter) was 65.4%.

As to “sense rUrUrGrUrUrCrGrUrCrUrGrUrArCrArArGrUrUdTdT / antisense rArArCrUrUrGrUrArCrArGrArCrGrArArCrArAdGdA”, the normalised inhibition (eCFP-eYFP dual reporter) amounted to 55.5%.

“sense rUrUrUrGrArGrGrUrCrArArArArCrCrCrUrUrAdTdT / antisense rUrArArGrGrGrUrUrUrUrGrArCrCrUrCrArArAdTdG”: the normalised inhibition (eCFP-eYFP dual reporter) was 82.6%.

Substance “sense rUrUrUrGrGrArArArArUrGrCrGrCrUrCrArCrAdTdT / antisense rUrGrUrGrArGrCrGrCrArUrUrUrUrCrCrArArAdTdC” showed a normalised inhibition (eCFP-eYFP dual reporter) of 47.6%.

For “sense rUrUrUrGrGrGrUrCrCrCrUrGrUrGrArCrArCrUdTdT / antisense rArGrUrGrUrCrArCrArGrGrGrArCrCrCrArArAdGdT”, the normalised inhibition (eCFP-eYFP dual reporter) was 50.8%.

For another data set, the target named is DENND5A. Description: reporter assay of Huesken 2005. Conditions: siRNA.
The substance “sense rArArArUrCrArGrCrCrUrUrArUrGrGrUrCrCrCdTdT / antisense rGrGrGrArCrCrArUrArArGrGrCrUrGrArUrUrUdCdC” came in with a normalised inhibition (eCFP-eYFP dual reporter) of 41.9%.

“sense rArArCrArGrGrGrArGrCrArArArUrGrCrArArAdTdT / antisense rUrUrUrGrCrArUrUrUrGrCrUrCrCrCrUrGrUrUdGdG” came in with a normalised inhibition (eCFP-eYFP dual reporter) of 49.2%.

“sense rArArCrCrUrArUrUrArUrGrArGrArCrArUrUrAdTdT / antisense rUrArArUrGrUrCrUrCrArUrArArUrArGrGrUrUdTdG” showed a normalised inhibition (eCFP-eYFP dual reporter) of 66.3%.

Substance “sense rArArCrUrGrGrGrGrUrGrArGrCrCrUrGrGrArAdTdT / antisense rUrUrCrCrArGrGrCrUrCrArCrCrCrCrArGrUrUdCdT” yielded a normalised inhibition (eCFP-eYFP dual reporter) of 58.4%.

As to “sense rArArGrArGrGrArArUrGrGrGrArArCrArUrUrGdTdT / antisense rCrArArUrGrUrUrCrCrCrArUrUrCrCrUrCrUrUdGdT”, the normalised inhibition (eCFP-eYFP dual reporter) is 50%.
